One data set can be described thus: Skin penetration. As to conditions: without assistance from penetration enhancers.
Data set [1] in a line: Example 3: pharmacokinetics of 4-hydroxy tamoxifen gel in healthy premenopausal women. Format: in vivo, human.
Protocol: Each participant applied the gel daily for the duration of two menstrual cycles.
At the end of a menstrual cycle, each patient received a single dose, after which serial blood samples were collected at 0, 0.5, 1, 1.5, 2, 3, 4, 6, 12, 18, 24, 36, 48, and 72 hours.
On the first day of the following menstruation, treatment, which consisted of daily application of the gel over two menstrual cycles, began. Blood samples were collected 24 hours following the morning application of gel on days 7, 20 and 25 of the first and second cycles. On the last day of administration, day 25 of the second menstrual cycle, serial blood samples were collected prior to application and at 0.5, 1, 1.5, 2, 3, 4, 6, 12, 18, 24, 36, 48, and 72 hours after application of the gel.
Data set [2] deals with mastalgia. As to the kind of experiment: Example 4: efficacy of percutaneous 4-hydroxy tamoxifen in mastalgia. Format: in vivo, human. An excerpt: All patients had normal mammograms within the previous 6 months, and utilized contraception throughout the study and 3 months preceding it.
The primary criteria considered were the number of painful days per month and the mean pain severity during the last 10 days of the menstrual cycle. Assessments of pain were made by patient self-evaluation. Secondary criteria included clinical assessment by the physician of breast tenderness, nodularity, breast size, local warmth, and breast circumference. Any side effects were recorded.
Daily self-evaluation of pain continued as in the earlier stage.

In the next data set the test system is rat liver. Particulars: in vivo; cited from earlier work.
A short description of data set [3]: Example 1: percutaneous [3H]-4-hydroxy tamoxifen delivery in breast cancer patients (tissue, blood, urine radioactivity).
Protocol: The patients received [^3H]-labeled drug applied directly on the affected breasts at specified intervals ranging from 12 hours to 7 days before surgery to excise diseased tissue. Breast tissue from three regions: the tumor, tissue immediately surrounding the tumor, and normal tissue, was excised and immediately frozen in liquid nitrogen. Additionally, plasma and urine samples were obtained at scheduled intervals and frozen until analysis.
Data set [4] deals with mastalgia. As to conditions: cited from earlier work; for side effects: cyclical mastalgia treatment, nausea, vomiting, dizziness, headache, acne, sweating, amenorrhea, weight gain.

Read-outs that look alike come from different tables or passages of the source.

As to `CC/C(=C(\c1ccc(O)cc1)c1ccc(OCCN(C)C)cc1)c1ccccc1` [4-hydroxy tamoxifen, 1-[4-(2-N-dimethylaminoethoxy)phenyl]-1-(4-hydroxyphenyl)-2-phenylbut-1-(Z)-ene], in “Skin penetration”, the skin penetration result is “poorly penetrates the skin”. Also, the “plasma concentrations after the last gel application” value in data set [1] (72 hours after the last gel application) was “remained detectable”. Moreover, the “Plasma concentration of 4-hydroxy tamoxifen, Mean ± SD (Range)” value in data set [1] (+8 days after last application, 0.5 mg/day, gel 20 mg/100 g) was “<LOQ”; in data set [1] (+8 days after last application, 1 mg/day, gel 57 mg/100 g), “(0-14.8) pg/mL”; in data set [1] (+12 days after last application, 0.5 mg/day, gel 20 mg/100 g) it was no more than 9.09 pg/mL; in data set [1] (+12 days after last application, 2 mg/day, gel 57 mg/100 g) it was “(0-30.4) pg/mL”; in data set [1] (+20 days after last application, 0.5 mg/day, gel 20 mg/100 g) it was 0 pg/mL; in data set [1] (+20 days after last application, 1 mg/day, gel 20 mg/100 g), “<LOQ”. In addition, the “Plasma concentration of 4-hydroxy tamoxifen, Mean ± SD (Range)” value was “(0-17.2) pg/mL” in data set [1] (First cycle, Day 1, 0 hr, 0.5 mg/day, gel 20 mg/100 g); “(0-13.9) pg/mL” in data set [1] (First cycle, Day 1, 0 hr, 1 mg/day, gel 20 mg/100 g); “(0-9.5) pg/mL” in data set [1] (First cycle, Day 1, 0 hr, 1 mg/day, gel 57 mg/100 g); “(0-0) pg/mL” in data set [1] (First cycle, Day 1, 0 hr, 2 mg/day, gel 57 mg/100 g). The “plasma concentrations after a single dose” value in data set [1] (single 0.5 mg dose, gel) is on record as “did not produce detectable plasma concentrations”. For the same compound, in the data set with mastalgia [2] (1.5 mg/day), the “reduction of mean number of days with pain” value is recorded as “more than 50%”. For the same compound, the “reduction of mean pain intensity” value with mastalgia [2] (1.5 mg/day) is listed as “more than 50%”. The “Mean Number of Days of Pain Level Greater than 20” value in the data set on mastalgia [2] (1 dose/breast, 0.5 mg/day, placebo 8.1 +/− 4.2) came out at 9.3 ± 5.2 days; in the data set on mastalgia [2] (2 doses/breast, 1.0 mg/day) it was 8.2 ± 5.5 days; in the data set with mastalgia [2] (3 doses/breast, 1.5 mg/day), 3.6 ± 5.2 days; with mastalgia [2] (4 doses/breast, 2.0 mg/day), 4.7 ± 4.4 days. For the same compound, the “Mean Pain Intensity During the Last 10 Days of the Menstrual Cycle” value is recorded as 38 +/− 25 /100 with mastalgia [2] (1 dose/breast, 0.5 mg/day, placebo 34 +/− 25); 29 +/− 23 /100 with mastalgia [2] (2 doses/breast, 1.0 mg/day); 15 +/− 19 /100 in the data set on mastalgia [2] (3 doses/breast, 1.5 mg/day); 17 +/− 19 /100 in the data set with mastalgia [2] (4 doses/breast, 2.0 mg/day). Further, the rat liver carcinogenicity entry in the data set with rat liver is given as “not”. Moreover, the “peak urinary elimination compared to percutaneous tamoxifen” value in data set [3] (percutaneous administration) is listed as “later time”. For the same compound, the “metabolism in cytosolic and nuclear fractions of breast tissue” value in data set [3] (percutaneous application) is “remained unmetabolized except for limited isomerization from the trans to the cis form”.

In the case of `CCC(=C(c1ccc(O)cc1)c1ccc(O)cc1)c1ccccc1` [Bisphenol], the “% Metabolites in Breast Tissue” value in data set [3] (12 hr after percutaneous trans-[3H]-4-hydroxy tamoxifen to the affected breast) is reported as 1%; in data set [3] (24 hr after percutaneous trans-[3H]-4-hydroxy tamoxifen to the affected breast), 2%; in data set [3] (36 hr after percutaneous trans-[3H]-4-hydroxy tamoxifen to the affected breast), 3%; in data set [3] (Day 4 after percutaneous trans-[3H]-4-hydroxy tamoxifen to the affected breast), 8%; in data set [3] (Day 7 after percutaneous trans-[3H]-4-hydroxy tamoxifen to the affected breast) it was 8%. For the same compound, the “share of radioactivity in blood” value in data set [3] (24 hours after percutaneous administration of [3H]-4-hydroxy tamoxifen) came out at 11%.

As to `CC/C(=C(\c1ccccc1)c1ccc(OCCN(C)C)cc1)c1ccccc1` [[^3H]-tamoxifen, reference compound], the “plateau of radioactivity in blood” value in data set [3] (percutaneous application) is listed as 2 days.

As to `CC(C)C[C@H]1C(=O)N2CCC[C@H]2[C@]2(O)O[C@](NC(=O)[C@@H]3C=C4c5cccc6[nH]c(Br)c(c56)C[C@H]4N(C)C3)(C(C)C)C(=O)N12` [bromocriptine], in the data set with mastalgia [4], the side effects result is given as “significant unwanted side effects”.

For the compound `C#C[C@]1(O)CC[C@H]2[C@@H]3CCC4=Cc5oncc5C[C@]4(C)[C@H]3CC[C@@]21C` [danazol], in the data set on mastalgia [4], the side effects entry is on record as “significant unwanted side effects”. Further, in the data set on mastalgia [4] (human, in vivo), the “efficacy at relieving cyclical mastalgia” value is recorded as “some efficacy”.

Consider `CC/C(=C(\c1ccccc1)c1ccc(OCCN(C)C)cc1)c1ccccc1` [tamoxifen], for which the “side effects reported by mastalgia patients” value with mastalgia [4] (oral tamoxifen) is “hot flashes, vaginal discharge, depression, amenorrhea, and nausea”. For the same compound, in the data set on mastalgia [4] (orally administered, patients with moderate to severe mastalgia), the “patients with reduced pain” value is given as 71-90%. Besides, the “effective at reducing pain” value in the data set on mastalgia [4] (patients with cyclical mastalgia) was 94%; in the data set on mastalgia [4] (patients with non-cyclical mastalgia) it was 56%. For the same compound, the “retention in the breast” value in data set [3] (percutaneous application of [3H]-labeled drug to the affected breast) was “shorter and far weaker”.

The values are drawn from patent US7786172B2 (priority 2002, dated 2010).
